± gives the uncertainty stated by the source.
Assay: xn = mol fraction of the nth substance listed
Details: for electrical conductivity: 101 kPa; for viscosity: 100 kPa

Q: What does the source list for CCCCCCCCCCCCOS(=O)(=O)[O-].[Na+] + O?
A: electrical conductivity (283.1 K, x1 = 6.483e-05): 0.01714 ± 1e-05 S/m; electrical conductivity (283.1 K, x1 = 6.941e-05): 0.01821 ± 1e-05 S/m; electrical conductivity (283.1 K, x1 = 7.476e-05): 0.01971 ± 1e-05 S/m; electrical conductivity (283.1 K, x1 = 8.126e-05): 0.02131 ± 1e-05 S/m; electrical conductivity (283.1 K, x1 = 8.852e-05): 0.02313 ± 1e-05 S/m; electrical conductivity (283.1 K, x1 = 9.769e-05): 0.02537 ± 2e-05 S/m; electrical conductivity (283.1 K, x1 = 0.0001027): 0.02665 ± 2e-05 S/m; electrical conductivity (283.1 K, x1 = 0.0001088): 0.02815 ± 2e-05 S/m; electrical conductivity (283.1 K, x1 = 0.0001153): 0.02986 ± 2e-05 S/m; electrical conductivity (283.1 K, x1 = 0.0001225): 0.03168 ± 2e-05 S/m; electrical conductivity (283.1 K, x1 = 0.000131): 0.03381 ± 2e-05 S/m; electrical conductivity (283.1 K, x1 = 0.0001413): 0.03617 ± 2e-05 S/m; electrical conductivity (283.1 K, x1 = 0.0001516): 0.03884 ± 2e-05 S/m; electrical conductivity (283.1 K, x1 = 0.0001654): 0.04066 ± 2e-05 S/m; electrical conductivity (283.1 K, x1 = 0.0001807): 0.04228 ± 2e-05 S/m; electrical conductivity (283.1 K, x1 = 0.0001998): 0.044 ± 2e-05 S/m; electrical conductivity (283.1 K, x1 = 0.0002228): 0.04584 ± 3e-05 S/m; electrical conductivity (283.1 K, x1 = 0.0002339): 0.0467 ± 3e-05 S/m; electrical conductivity (283.1 K, x1 = 0.0002461): 0.04778 ± 3e-05 S/m; electrical conductivity (283.1 K, x1 = 0.0002595): 0.04865 ± 3e-05 S/m; electrical conductivity (283.1 K, x1 = 0.0002745): 0.04994 ± 3e-05 S/m; electrical conductivity (283.1 K, x1 = 0.0002921): 0.05135 ± 3e-05 S/m; electrical conductivity (288.15 K, x1 = 6.595e-05): 0.01969 ± 1e-05 S/m; electrical conductivity (288.15 K, x1 = 7.09e-05): 0.02119 ± 1e-05 S/m; electrical conductivity (288.15 K, x1 = 7.663e-05): 0.02279 ± 1e-05 S/m; electrical conductivity (288.15 K, x1 = 8.276e-05): 0.0245 ± 1e-05 S/m; electrical conductivity (288.15 K, x1 = 9e-05): 0.02696 ± 1e-05 S/m; electrical conductivity (288.15 K, x1 = 9.917e-05): 0.02952 ± 2e-05 S/m; electrical conductivity (288.15 K, x1 = 0.0001045): 0.03102 ± 2e-05 S/m; electrical conductivity (288.15 K, x1 = 0.0001107): 0.03273 ± 2e-05 S/m; electrical conductivity (288.15 K, x1 = 0.0001168): 0.03465 ± 2e-05 S/m; electrical conductivity (288.15 K, x1 = 0.0001244): 0.03679 ± 2e-05 S/m; electrical conductivity (288.15 K, x1 = 0.0001328): 0.03924 ± 2e-05 S/m; electrical conductivity (288.15 K, x1 = 0.0001424): 0.04191 ± 2e-05 S/m; electrical conductivity (288.15 K, x1 = 0.0001538): 0.04459 ± 2e-05 S/m; electrical conductivity (288.15 K, x1 = 0.0001668): 0.0463 ± 2e-05 S/m; electrical conductivity (288.15 K, x1 = 0.0001829): 0.04792 ± 2e-05 S/m; electrical conductivity (288.15 K, x1 = 0.0002013): 0.04975 ± 2e-05 S/m; electrical conductivity (288.15 K, x1 = 0.0002246): 0.05212 ± 3e-05 S/m; electrical conductivity (288.15 K, x1 = 0.0002357): 0.05319 ± 3e-05 S/m; electrical conductivity (288.15 K, x1 = 0.0002468): 0.05427 ± 3e-05 S/m; electrical conductivity (288.15 K, x1 = 0.0002602): 0.05567 ± 3e-05 S/m; electrical conductivity (288.15 K, x1 = 0.0002748): 0.05707 ± 3e-05 S/m; electrical conductivity (288.15 K, x1 = 0.0002912): 0.05868 ± 3e-05 S/m; viscosity (293.15 K, x1 = 1.802e-05): 0.968 ± 0.027 mPa·s; viscosity (293.15 K, x1 = 3.604e-05): 0.97 ± 0.027 mPa·s; viscosity (293.15 K, x1 = 5.406e-05): 0.971 ± 0.027 mPa·s; viscosity (293.15 K, x1 = 7.207e-05): 0.974 ± 0.027 mPa·s; viscosity (293.15 K, x1 = 9.009e-05): 0.978 ± 0.027 mPa·s; viscosity (293.15 K, x1 = 0.0001081): 0.981 ± 0.027 mPa·s; viscosity (293.15 K, x1 = 0.0001261): 0.984 ± 0.027 mPa·s; viscosity (293.15 K, x1 = 0.0001441): 0.986 ± 0.027 mPa·s; viscosity (293.15 K, x1 = 0.0001622): 0.988 ± 0.027 mPa·s; viscosity (293.15 K, x1 = 0.0001802): 0.989 ± 0.027 mPa·s; viscosity (293.15 K, x1 = 0.0001982): 0.992 ± 0.027 mPa·s; viscosity (293.15 K, x1 = 0.0002162): 0.993 ± 0.027 mPa·s; viscosity (293.15 K, x1 = 0.0002342): 0.993 ± 0.027 mPa·s; viscosity (293.15 K, x1 = 0.0002522): 0.995 ± 0.027 mPa·s; viscosity (293.15 K, x1 = 0.0002702): 0.996 ± 0.027 mPa·s; electrical conductivity (293.15 K, x1 = 6.553e-05): 0.02214 ± 1e-05 S/m; electrical conductivity (293.15 K, x1 = 6.973e-05): 0.02364 ± 1e-05 S/m; electrical conductivity (293.15 K, x1 = 7.508e-05): 0.02545 ± 1e-05 S/m; electrical conductivity (293.15 K, x1 = 8.157e-05): 0.02759 ± 1e-05 S/m; electrical conductivity (293.15 K, x1 = 8.883e-05): 0.03004 ± 2e-05 S/m; electrical conductivity (293.15 K, x1 = 9.76e-05): 0.03303 ± 2e-05 S/m; electrical conductivity (293.15 K, x1 = 0.000103): 0.03463 ± 2e-05 S/m; electrical conductivity (293.15 K, x1 = 0.0001091): 0.03666 ± 2e-05 S/m; electrical conductivity (293.15 K, x1 = 0.0001152): 0.03858 ± 2e-05 S/m; electrical conductivity (293.15 K, x1 = 0.0001228): 0.04104 ± 2e-05 S/m; electrical conductivity (293.15 K, x1 = 0.0001312): 0.04371 ± 2e-05 S/m; electrical conductivity (293.15 K, x1 = 0.0001408): 0.0468 ± 2e-05 S/m; electrical conductivity (293.15 K, x1 = 0.0001522): 0.04969 ± 2e-05 S/m; electrical conductivity (293.15 K, x1 = 0.0001649): 0.05162 ± 3e-05 S/m; electrical conductivity (293.15 K, x1 = 0.0001805): 0.05366 ± 3e-05 S/m; electrical conductivity (293.15 K, x1 = 0.0001989): 0.05581 ± 3e-05 S/m; electrical conductivity (293.15 K, x1 = 0.0002219): 0.0586 ± 3e-05 S/m; electrical conductivity (293.15 K, x1 = 0.0002326): 0.05979 ± 3e-05 S/m; electrical conductivity (293.15 K, x1 = 0.0002441): 0.06118 ± 3e-05 S/m; electrical conductivity (293.15 K, x1 = 0.0002575): 0.06269 ± 3e-05 S/m; electrical conductivity (293.15 K, x1 = 0.000272): 0.06419 ± 3e-05 S/m; electrical conductivity (293.15 K, x1 = 0.0002889): 0.06613 ± 4e-05 S/m; viscosity (298.15 K, x1 = 1.802e-05): 0.853 ± 0.027 mPa·s; viscosity (298.15 K, x1 = 3.604e-05): 0.854 ± 0.026 mPa·s; viscosity (298.15 K, x1 = 5.406e-05): 0.855 ± 0.026 mPa·s; viscosity (298.15 K, x1 = 7.207e-05): 0.856 ± 0.026 mPa·s; viscosity (298.15 K, x1 = 9.009e-05): 0.857 ± 0.026 mPa·s; viscosity (298.15 K, x1 = 0.0001081): 0.857 ± 0.026 mPa·s; viscosity (298.15 K, x1 = 0.0001261): 0.858 ± 0.027 mPa·s; viscosity (298.15 K, x1 = 0.0001441): 0.86 ± 0.026 mPa·s; viscosity (298.15 K, x1 = 0.0001622): 0.862 ± 0.026 mPa·s; viscosity (298.15 K, x1 = 0.0001802): 0.863 ± 0.026 mPa·s; viscosity (298.15 K, x1 = 0.0001982): 0.864 ± 0.026 mPa·s; viscosity (298.15 K, x1 = 0.0002162): 0.865 ± 0.026 mPa·s; viscosity (298.15 K, x1 = 0.0002342): 0.866 ± 0.026 mPa·s; viscosity (298.15 K, x1 = 0.0002522): 0.866 ± 0.026 mPa·s
